A short description of this data set: Isomerization of 4-hydroxy tamoxifen in hydroalcoholic solutions at 25°, 30° and 40° C., Z/E isomers by HPLC (Example 1). In kind it is physicochemical. The method, then:
Hydroalcoholic solutions containing 4-hydroxy tamoxifen were prepared, based on the following gel formula: […]
In the hydroalcoholic solutions, phosphate buffer was substituted for Klucel. The composition of the buffer was as follows:
At each of the stated concentrations, separate solutions containing Z-4-hydroxy tamoxifen or a mixture of Z- and E-4-hydroxy tamoxifen were prepared.
Each solution was subdivided into three parts in 30 ml brown glass bottles, then placed in ovens regulated at 25°, 30°, and 40° C.
The relative amounts of Z- and E-4-hydroxy tamoxifen isomers were determined at the initiation of the study and at 2-week, 1-month, 2-month, 3-month, 4-month and 5-month time points.
Operating parameters for the HPLC were as follows:
The order of elution was as follows: • 4-OHT E: retention time about 13.3 min • 4-OHT Z: retention time about 15.0 min.
Percentages of each isomer were calculated using the following formulas: [formula] [formula] D. Data fitting:
The reversible isomerization reaction and the equilibrium reaches are lied by the following relationship: [formula] where • A0=initial concentration of the reagent • Aeq=concentration of the same reagent at equilibrium • A=the concentration of A at time t • kf=forward rate constant • kr=reverse rate constant • t=time measured in months
A plot of log [formula] as a function of time gives a straight line fit with a slope of [formula] and a y-intercept of 0. E. Results

The mark [1] stands for this setting: 25° C., nominal 4-hydroxy tamoxifen concentration (Z + E) in solution 0.02%.
Setting [2] is: 25° C., nominal concentration (Z + E) 0.04%.
Where [3] appears, read: 25° C., nominal concentration (Z + E) 0.06%.
[4] abbreviates: 25° C., nominal concentration (Z + E) 0.08%.
The mark [5] stands for this setting: 25° C., nominal concentration (Z + E) 0.10%.
[6] abbreviates: 30° C., nominal concentration (Z + E) 0.02%.
Setting [7] is: 30° C., nominal concentration (Z + E) 0.04%.
Setting [8] is: 30° C., nominal concentration (Z + E) 0.06%.
The mark [9] stands for this setting: 30° C., nominal concentration (Z + E) 0.08%.
The mark [10] stands for this setting: 30° C., nominal concentration (Z + E) 0.10%.
[11] abbreviates: 40° C., nominal concentration (Z + E) 0.02%.
[12] abbreviates: 40° C., nominal concentration (Z + E) 0.04%.
The mark [13] stands for this setting: 40° C., nominal concentration (Z + E) 0.06%.
Where [14] appears, read: 40° C., nominal concentration (Z + E) 0.08%.
The mark [15] stands for this setting: 40° C., nominal concentration (Z + E) 0.10%.

On to `CC/C(=C(\c1ccc(O)cc1)c1ccc(OCCN(C)C)cc1)c1ccccc1` [Batch PANCHIM 7421], for which the Rate constant was 0.0225 month^−1 under setting [1]; 0.0637 month^−1 under setting [2]; 0.0886 month^−1 under setting [3]; 0.1352 month^−1 under setting [4]; 0.1827 month^−1 under setting [5]; 0.0457 month^−1 under setting [6]. Moreover, the Rate constant runs as follows: under setting [7], 0.0864 month^−1; under setting [8], 0.1487 month^−1; under setting [9], 0.1900 month^−1; under setting [10], 0.2568 month^−1; under setting [11], 0.1097 month^−1; under setting [12], 0.2287 month^−1. In addition, the Rate constant is 0.3877 month^−1 under setting [13], 0.5311 month^−1 under setting [14] and 0.6300 month^−1 under setting [15].
Regarding `CC/C(=C(\c1ccc(O)cc1)c1ccc(OCCN(C)C)cc1)c1ccccc1` [ICI batch Bx 17], the Rate constant was 0.0347 month^−1 under setting [1]; 0.0484 month^−1 under setting [2]; 0.0916 month^−1 under setting [3]; 0.1476 month^−1 under setting [4]; 0.2169 month^−1 under setting [5]; 0.0254 month^−1 under setting [6]. For the same molecule, the Rate constant stood at 0.0801 month^−1 under setting [7]; 0.1563 month^−1 under setting [8]; 0.2718 month^−1 under setting [9]; 0.3103 month^−1 under setting [10]; 0.0722 month^−1 under setting [11]; 0.2323 month^−1 under setting [12]. Besides, the Rate constant under setting [13] is reported as 0.3924 month^−1, the Rate constant under setting [14] stood at 0.5095 month^−1 and the Rate constant under setting [15] is given as 0.6960 month^−1.

The record behind these values is patent publication US20050208139A1 (Ascend Therapeutics, Inc., priority 2004, published 2005).
